The assay deals with T1, hMOR (Homo sapiens, UniProt P35372).
T1 construct: host or cells: CHO-K1
In words: cell-based. The note with it: for AUC: AUC of [Ca2+]i fluorescence. It counts as cell-based. Here is the method: Chinese hamster ovary (CHO)-K1 cells expressing hMOR and Gα15 (CHO-K1/MOR/Gα15) were cultured in F12 medium (GIBCO) supplemented with 10 μg/mL Hygromycin B (Invivogen), 20 μg/mL Zeocin (Invivogen) and P/S/F (100 units/mL penicillin, 100 μg/mL streptomycin, 10% fetal bovine serum). The cultures were incubated at 37° C. in a humidified 5% CO2 incubator.
One day prior to running the assay, CORNING® black 96-well assay plates having a clear flat bottom were coated with a 0.1 mg/mL Poly-L-Lysine solution. CHO-K1/MOR/Gα15 cells were suspended in F12 medium and plated at a density of about 8×10^4 cells/well in 200 μL medium. Cells were incubated under a humidified atmosphere of 10% CO2 at 37° C. overnight to reach an 80-90% confluent cell monolayer before the assay. On the day of the assay, 150 μL medium was removed from each well of the plates. To each well were added FLIPR® calcium assay reagents (Molecular Devices Corporation, Sunnyvale, Calif., USA; 50 μL) dissolved in 1× assay buffer (HBSS: KCl 5 mM, KH2PO4 0.3 mM, NaCl 138 mM, NaHCO3 4 mM, Na2HPO4 0.3 mM, d-glucose 5.6 mM, with additional 20 mM HEPES and […], pH 7.4) and 2.5 mM probenecid. After incubation at 37° C. for 1 hour, a test compound, alone or together with naloxone (a MOR antagonist), was also added to each well. Using a FlexStationlll instrument (Molecular Devices Corp.), increments of the [Ca^2+]i fluorescence after robotic injection of the cell suspension were monitored at 1.52 s intervals using the excitation wavelength of 485 nm and the emission wavelength of 525 nm. The [Ca^2+]i fluorescence was measured up to 90 s after the injection. The fluorescence intensity from 6 to 12 wells of cells were averaged and the relative amount of [Ca^2+]i release was determined by integrating the AUC of the [Ca^2+]i fluorescence averages.
A CHO-K1 cell line expressing MOR and Gα15 (GenScript) was used to set up a sensitive high-throughput screen (HTS) system. […] The HTS was performed in the absence or presence of naloxone (an opioid antagonist; 20 nM), to identify AAMs.

Setting [1] is: combined with naloxone, CHO-K1/MOR/Gα15 cells.
Setting [2] is: combined with naloxone, CHO-K1/MOR/Gα15 cells, read-out: EC50.
Setting [3] is: EC50, combined with naloxone, CHO-K1/MOR/Gα15 cells.

SMILES strings stand for the structures. Like-named read-outs stand apart in the source and are kept apart here.

As usually defined, the EC50 is the concentration needed to bring the measured effect to its halfway point.

T1 sequence (P35372 whole entry): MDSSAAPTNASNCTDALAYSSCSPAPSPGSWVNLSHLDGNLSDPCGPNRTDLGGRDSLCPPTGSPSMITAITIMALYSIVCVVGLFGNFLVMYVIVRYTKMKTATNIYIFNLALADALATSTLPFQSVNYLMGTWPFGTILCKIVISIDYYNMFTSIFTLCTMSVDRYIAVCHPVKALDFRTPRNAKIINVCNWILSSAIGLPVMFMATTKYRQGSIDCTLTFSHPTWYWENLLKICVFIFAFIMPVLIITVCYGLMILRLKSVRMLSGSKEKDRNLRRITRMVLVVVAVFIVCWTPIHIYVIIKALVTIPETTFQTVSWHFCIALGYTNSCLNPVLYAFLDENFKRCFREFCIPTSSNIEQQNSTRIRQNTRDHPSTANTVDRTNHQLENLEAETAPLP

On to `Cc1nc(C)c(-c2csc(Nc3cccc(Cl)c3C)n2)s1` [Compound 77, N-(3-Chloro-2-methylphenyl)-2′,4′-dimethyl-4,5′-bi-1,3-thiazol-2-amine], for which the AUC result under setting [1] is reported as “− (−: <5000)”. Besides, the EC50 under setting [2] is over 10 µM.

In the case of `Cc1cc(C)c(Nc2nc(-c3oc(C)nc3C)cs2)c(C)c1` [Compound 106, 4-(2,4-Dimethyl-1,3-oxazol-5-yl)-N-(2,4,6-trimethylphenyl)-1,3-thiazol-2-amine], the AUC entry under setting [1] is recorded as “+ (+: >5000)”. Besides, the EC50 runs as follows: (EC50, combined with naloxone) under 10 µM; under setting [3], 3 to 10 µM.

Regarding `Cc1ccc(Nc2nc(-c3sc(-c4ccccc4)nc3C)cs2)c(C)c1` [Compound 93, N-(2,4-Dimethylphenyl)-4′-methyl-2′-phenyl-4,5′-bi-1,3-thiazol-2-amine], under setting [1], the AUC result is recorded as “− (−: <5000)”. In addition, the 50% effective concentration (EC50) under setting [2] was over 10 µM.

`CCc1ccccc1Nc1nc(-c2cccs2)cs1` [Compound 124, N-(2-Ethylphenyl)-4-(2-thiophenyl)-1,3-thiazol-2-amine]: the AUC entry under setting [1] was “− (−: <5000)”. The EC50 under setting [2] was over 10 µM.

In the case of `CCc1ccccc1Nc1nc(-c2cc(-c3ccccc3)no2)cs1` [Compound 129, N-(2-Ethylphenyl)-4-(3-phenyl-1,2-oxazol-5-yl)-1,3-thiazol-2-amine], under setting [1], the AUC entry is “− (−: <5000)”. The half-maximal effective concentration (EC50) under setting [2] was over 10 µM.

As for `COc1cccc(C)c1Nc1nc(-c2sc(C)nc2C)cs1` [Compound 4, N-(2-Methoxy-6-methylphenyl)-2′,4′-dimethyl-4,5′-bi-1,3-thiazol-2-amine], the AUC result under setting [1] is “+ (+: >5000)”. In addition, the EC50 under setting [2] was over 10 µM.

Regarding `Cc1nc(C)c(-c2csc(Nc3ccccc3N3CCCCC3)n2)s1` [Compound 68, 2′,4′-Dimethyl-N-[2-(1-piperidinyl)phenyl]-4,5′-bi-1,3-thiazol-2-amine], the AUC result under setting [1] is on record as “− (−: <5000)”. Under setting [2], the half-maximal effective concentration (EC50) is over 10 µM.

For `CCc1ccccc1Nc1nc(-c2sc(C)nc2C)c(C)s1` [Compound 98, N-(2-Ethylphenyl)-2′,4′,5-trimethyl-4,5′-bi-1,3-thiazol-2-amine], the AUC entry under setting [1] is reported as “− (−: <5000)”. Further, the EC50 under setting [2] was over 10 µM.

Regarding `Cc1nc(C)c(-c2csc(Nc3cccc(O)c3C)n2)s1` [Compound 89, 3-[(2′,4′-Dimethyl-4,5′-bi-1,3-thiazol-2-yl)amino]-2-methylphenol], the AUC result under setting [1] is on record as “− (−: <5000)”. The concentration giving a half-maximal response (EC50) under setting [2] is over 10 µM.

Consider `CCc1ccccc1Nc1nc(-c2ccc3c(c2)OCCCO3)cs1` [Compound 122, 4-(3,4-Dihydro-2H-1,5-benzodioxepin-7-yl)-N-(2-ethylphenyl)-1,3-thiazol-2-amine], for which the AUC entry under setting [1] is given as “− (−: <5000)”. In addition, the half-maximal effective concentration (EC50) under setting [2] is over 10 µM.

As to `Cc1nc(C)c(-c2csc(Nc3nc4ccccc4s3)n2)s1` [Compound 117, N-(1,3-Benzothiazol-2-yl)-2′,4′-dimethyl-4,5′-bi-1,3-thiazol-2-amine], the AUC entry under setting [1] is “− (−: <5000)”. The concentration giving a half-maximal response (EC50) under setting [2] is over 10 µM.

`Cc1nc(C)c(-c2csc(Nc3c(C)cc(F)cc3C)n2)s1` [Compound 55, N-(4-Fluoro-2,6-dimethylphenyl)-2′,4′-dimethyl-4,5′-bi-1,3-thiazol-2-amine]: under setting [1], the AUC entry is on record as “+ (+: >5000)”. The EC50 under setting [2] is over 10 µM.

Take `Cc1nc(C)c(-c2csc(Nc3ccc(O)cc3C)n2)s1` [Compound 60, 4-[(2′,4′-Dimethyl-4,5′-bi-1,3-thiazol-2-yl)amino]-3-methylphenol]: the AUC result under setting [1] is given as “− (−: <5000)”. In addition, the EC50 under setting [2] is over 10 µM.

Turning to `Cc1nc(C)c(-c2csc(Nc3c(C)cccc3F)n2)s1` [Compound 33, N-(2-Fluoro-6-methylphenyl)-2′,4′-dimethyl-4,5′-bi-1,3-thiazol-2-amine], the AUC entry under setting [1] is “+ (+: >5000)”. The concentration giving a half-maximal response (EC50) reads like this: (EC50, combined with naloxone) under 10 µM; under setting [3], 3 to 10 µM.

For the compound `CCc1nc(C)c(-c2csc(Nc3ccccc3CC)n2)s1` [Compound 95, 2′-Ethyl-N-(2-ethylphenyl)-4′-methyl-4,5′-bi-1,3-thiazol-2-amine], the AUC result under setting [1] is on record as “+ (+: >5000)”. Besides, the EC50 reads like this: (EC50, combined with naloxone) under 10 µM; under setting [3], 3 to 10 µM.

As to `CCc1ccccc1Nc1nc(-c2ccc(C)cc2C)cs1` [Compound 120, 4-(2,4-Dimethylphenyl)-N-(2-ethylphenyl)-1,3-thiazol-2-amine], the AUC result under setting [1] was “− (−: <5000)”. The concentration giving a half-maximal response (EC50) under setting [2] was over 10 µM.

For `CCc1ccccc1Nc1nc(-c2ccc(C)cc2)cs1` [Compound 121, N-(2-Ethylphenyl)-4-(4-methylphenyl)-1,3-thiazol-2-amine], the AUC result under setting [1] is recorded as “− (−: <5000)”. Also, the EC50 under setting [2] was over 10 µM.

For `Cc1ccc(Nc2nc(-c3sc(C)nc3C)cs2)c(C)c1` [Compound 29, N-(2,4-Dimethylphenyl)-2′,4′-dimethyl-4,5′-bi-1,3-thiazol-2-amine], the AUC entry under setting [1] is “+ (+: >5000)”. Moreover, the EC50 is, setting by setting: (EC50, combined with naloxone) under 10 µM; under setting [3], 3 to 10 µM.

For the compound `Cc1nc(C)c(-c2csc(Nc3ccccc3CO)n2)s1` [Compound 62, {2-[(2′,4′-Dimethyl-4,5′-bi-1,3-thiazol-2-yl)amino]phenyl}methanol], the AUC entry under setting [1] is listed as “− (−: <5000)”. Further, under setting [2], the half-maximal effective concentration (EC50) was over 10 µM.

With `Cc1nc(C)c(-c2csc(Nc3cc(Cl)ccc3C)n2)s1` [Compound 15, N-(5-Chloro-2-methylphenyl)-2′,4′-dimethyl-4,5′-bi-1,3-thiazol-2-amine], under setting [1], the AUC result is “− (−: <5000)”. Moreover, the EC50 under setting [2] was over 10 µM.

For `Cc1nc(C)c(-c2csc(Nc3ccccc3F)n2)s1` [Compound 9, N-(2-Fluorophenyl)-2′,4′-dimethyl-4,5′-bi-1,3-thiazol-2-amine], under setting [1], the AUC entry was “− (−: <5000)”. Besides, the EC50 under setting [2] was over 10 µM.

As for `Cc1nc(C)c(-c2csc(Nc3ccccc3-n3cccc3)n2)s1` [Compound 72, 2′,4′-Dimethyl-N-[2-(1H-pyrrol-1-yl)phenyl]-4,5′-bi-1,3-thiazol-2-amine], the AUC entry under setting [1] is given as “− (−: <5000)”. Under setting [2], the EC50 is over 10 µM.

As for `Cc1nc(C)c(-c2csc(Nc3c(C(C)C)cccc3C(C)C)n2)s1` [Compound 23, N-(2,6-Diisopropylphenyl)-2′,4′-dimethyl-4,5′-bi-1,3-thiazol-2-amine], the AUC result under setting [1] was “− (−: <5000)”. Besides, the EC50 under setting [2] is over 10 µM.

Regarding `CCc1ccccc1Nc1nc(-c2oc(C)nc2C)cs1` [Compound 102, 4-(2,4-Dimethyl-1,3-oxazol-5-yl)-N-(2-ethylphenyl)-1,3-thiazol-2-amine], the AUC result under setting [1] is “+ (+: >5000)”. For the same compound, the EC50 reads like this: (EC50, combined with naloxone) under 10 µM; under setting [3], 3 to 10 µM.

Consider `CCc1ccccc1Nc1ncc(-c2sc(C)nc2C)o1` [Compound 107, 5-(2,4-Dimethyl-1,3-thiazol-5-yl)-N-(2-ethylphenyl)-1,3-oxazol-2-amine], for which the AUC entry under setting [1] was “+ (+: >5000)”. Further, under setting [2], the half-maximal effective concentration (EC50) is over 10 µM.

Regarding `Cc1nc(C)c(-c2csc(Nc3ccc(Br)cc3C(F)(F)F)n2)s1` [Compound 43, N-[4-Bromo-2-(trifluoromethyl)phenyl]-2′,4′-dimethyl-4,5′-bi-1,3-thiazol-2-amine], the AUC entry under setting [1] was “+ (+: >5000)”. Besides, the EC50 under setting [2] is over 10 µM.

As to `COc1cc(C)c(Nc2nc(-c3sc(C)nc3C)cs2)cc1OC` [Compound 27, N-(4,5-Dimethoxy-2-methylphenyl)-2′,4′-dimethyl-4,5′-bi-1,3-thiazol-2-amine], under setting [1], the AUC result is given as “− (−: <5000)”. Moreover, the EC50 under setting [2] is over 10 µM.

These data come from patent US9827228B2, “Opioid receptor modulators and use thereof” (priority 2015, dated 2017).
